Laboratory results published in ChEMBL document CHEMBL3763143, “Novel morpholine scaffolds as selective dopamine (DA) D3 receptor antagonists” (Bioorg Med Chem Lett, 2016).

What was measured:
D(3) dopamine receptor = D(3) dopamine receptor (Rattus norvegicus, UniProt P19020)
Description: Displacement of [125I]-7-OH-PIPAT from rat brain dopamine D3 receptor after 45 mins by microplate scintillation counting analysis

[1] = Half life in portal vein-cannulated rat; assay type: ADME, organism-based; conditions: in vivo
Cytochrome P450 2C9 = Cytochrome P450 2C9 (Homo sapiens, UniProt P11712); test: Inhibition of human CYP2C9 expressed in bactosome; assay type: ADME
Sequence of Cytochrome P450 2C9 (P11712 whole entry): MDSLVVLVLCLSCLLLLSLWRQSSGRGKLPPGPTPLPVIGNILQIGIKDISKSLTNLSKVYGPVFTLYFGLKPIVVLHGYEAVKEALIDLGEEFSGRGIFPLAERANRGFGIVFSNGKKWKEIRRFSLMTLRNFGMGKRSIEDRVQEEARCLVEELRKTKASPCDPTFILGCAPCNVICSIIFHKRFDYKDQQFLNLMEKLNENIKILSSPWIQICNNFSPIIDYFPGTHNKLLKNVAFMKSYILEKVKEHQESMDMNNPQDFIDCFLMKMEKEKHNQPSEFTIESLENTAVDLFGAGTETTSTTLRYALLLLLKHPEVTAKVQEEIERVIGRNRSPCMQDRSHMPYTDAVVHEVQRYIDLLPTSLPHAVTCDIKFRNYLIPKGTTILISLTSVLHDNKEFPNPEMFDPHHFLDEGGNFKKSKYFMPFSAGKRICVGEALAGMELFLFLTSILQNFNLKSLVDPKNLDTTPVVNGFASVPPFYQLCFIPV

[2] = target: T1, Muscarinic acetylcholine receptor M1 (Homo sapiens, UniProt P11229); test: Antagonist activity at muscarinic M1 receptor (unknown origin)
T1 sequence (P11229 whole entry): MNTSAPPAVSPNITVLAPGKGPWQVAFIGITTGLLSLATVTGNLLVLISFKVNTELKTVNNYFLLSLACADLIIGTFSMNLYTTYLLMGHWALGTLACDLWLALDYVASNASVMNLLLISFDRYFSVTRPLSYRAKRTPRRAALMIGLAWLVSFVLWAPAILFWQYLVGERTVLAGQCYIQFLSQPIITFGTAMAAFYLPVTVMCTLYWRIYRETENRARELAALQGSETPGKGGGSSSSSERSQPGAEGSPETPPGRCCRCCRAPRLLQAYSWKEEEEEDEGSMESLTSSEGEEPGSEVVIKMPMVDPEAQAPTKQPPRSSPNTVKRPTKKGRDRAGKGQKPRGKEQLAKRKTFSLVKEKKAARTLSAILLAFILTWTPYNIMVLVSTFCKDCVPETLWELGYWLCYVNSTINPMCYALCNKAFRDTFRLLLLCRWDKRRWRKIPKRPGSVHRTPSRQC

[3] = Intrinsic clearance in human liver microsomes assessed per mg of protein; assay type: ADME; conditions: read-out: CLH
[4] = Hepatic extraction ratio in portal vein-cannulated rat; assay type: ADME, organism-based; conditions: in vivo, read-out: ERH
[5] = target: Voltage-gated inwardly rectifying potassium channel KCNH2 (Homo sapiens, UniProt Q12809); test: Displacement of [3H]-dofetilide from human ERG potassium channel by scintillation proximity assay
Sequence of Voltage-gated inwardly rectifying potassium channel KCNH2 (Q12809 whole entry): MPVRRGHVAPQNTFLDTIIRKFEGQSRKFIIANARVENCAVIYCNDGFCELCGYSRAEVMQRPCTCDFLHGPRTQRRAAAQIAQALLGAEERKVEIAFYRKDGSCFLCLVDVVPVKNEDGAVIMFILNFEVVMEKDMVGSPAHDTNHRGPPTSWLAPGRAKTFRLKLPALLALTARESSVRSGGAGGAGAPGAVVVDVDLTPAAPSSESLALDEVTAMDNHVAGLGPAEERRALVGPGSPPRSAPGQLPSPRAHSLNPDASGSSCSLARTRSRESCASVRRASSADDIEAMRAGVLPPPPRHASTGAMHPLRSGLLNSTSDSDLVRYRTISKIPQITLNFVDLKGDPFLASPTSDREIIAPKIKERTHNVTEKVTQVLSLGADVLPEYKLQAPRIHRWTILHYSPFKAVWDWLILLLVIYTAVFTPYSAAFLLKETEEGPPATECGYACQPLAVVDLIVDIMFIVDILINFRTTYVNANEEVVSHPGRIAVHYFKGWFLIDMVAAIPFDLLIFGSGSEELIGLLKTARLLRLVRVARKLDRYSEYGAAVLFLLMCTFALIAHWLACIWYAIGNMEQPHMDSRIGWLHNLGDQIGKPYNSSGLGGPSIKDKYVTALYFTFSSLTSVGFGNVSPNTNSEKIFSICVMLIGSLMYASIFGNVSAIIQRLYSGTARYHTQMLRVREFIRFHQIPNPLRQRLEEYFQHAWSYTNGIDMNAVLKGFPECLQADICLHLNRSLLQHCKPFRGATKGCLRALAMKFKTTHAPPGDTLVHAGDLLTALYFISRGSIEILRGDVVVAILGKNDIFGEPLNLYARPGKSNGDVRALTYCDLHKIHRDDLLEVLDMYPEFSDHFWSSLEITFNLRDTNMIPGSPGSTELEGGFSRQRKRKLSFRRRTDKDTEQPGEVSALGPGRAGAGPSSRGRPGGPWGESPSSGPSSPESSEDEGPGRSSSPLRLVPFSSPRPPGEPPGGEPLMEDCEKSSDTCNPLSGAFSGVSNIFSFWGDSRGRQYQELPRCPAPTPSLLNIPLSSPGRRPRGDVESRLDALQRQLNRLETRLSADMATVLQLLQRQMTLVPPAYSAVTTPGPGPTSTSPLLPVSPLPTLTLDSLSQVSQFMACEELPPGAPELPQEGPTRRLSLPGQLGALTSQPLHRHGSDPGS

[6] = Fraction unbound in portal vein-cannulated rat blood; assay type: ADME, tissue-based
Cytochrome P450 3A4 [7] = target: T2, Cytochrome P450 3A4 (Homo sapiens, UniProt P08684); test: Inhibition of human CYP3A4 expressed in bactosome using DBOMF as substrate; assay type: ADME
T2 sequence (P08684 whole entry): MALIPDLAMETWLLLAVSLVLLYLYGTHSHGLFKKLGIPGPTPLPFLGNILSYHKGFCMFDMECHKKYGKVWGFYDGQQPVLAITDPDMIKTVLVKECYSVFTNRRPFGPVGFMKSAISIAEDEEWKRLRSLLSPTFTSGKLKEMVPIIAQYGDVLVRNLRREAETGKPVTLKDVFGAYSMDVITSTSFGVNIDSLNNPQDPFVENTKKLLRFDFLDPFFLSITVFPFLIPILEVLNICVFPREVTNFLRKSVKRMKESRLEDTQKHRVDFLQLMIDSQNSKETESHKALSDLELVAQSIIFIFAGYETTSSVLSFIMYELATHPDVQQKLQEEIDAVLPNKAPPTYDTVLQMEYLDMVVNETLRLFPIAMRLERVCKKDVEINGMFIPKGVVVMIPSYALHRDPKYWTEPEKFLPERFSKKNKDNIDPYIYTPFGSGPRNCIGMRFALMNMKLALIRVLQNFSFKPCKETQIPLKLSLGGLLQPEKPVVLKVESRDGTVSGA

[8] = Fraction absorbed in portal vein-cannulated rat; assay type: ADME, organism-based; conditions: in vivo
Cytochrome P450 1A2 = target: T3, Cytochrome P450 1A2 (Homo sapiens, UniProt P05177); test: Inhibition of human CYP1A2 expressed in bactosome; assay type: ADME
T3 sequence (P05177 whole entry): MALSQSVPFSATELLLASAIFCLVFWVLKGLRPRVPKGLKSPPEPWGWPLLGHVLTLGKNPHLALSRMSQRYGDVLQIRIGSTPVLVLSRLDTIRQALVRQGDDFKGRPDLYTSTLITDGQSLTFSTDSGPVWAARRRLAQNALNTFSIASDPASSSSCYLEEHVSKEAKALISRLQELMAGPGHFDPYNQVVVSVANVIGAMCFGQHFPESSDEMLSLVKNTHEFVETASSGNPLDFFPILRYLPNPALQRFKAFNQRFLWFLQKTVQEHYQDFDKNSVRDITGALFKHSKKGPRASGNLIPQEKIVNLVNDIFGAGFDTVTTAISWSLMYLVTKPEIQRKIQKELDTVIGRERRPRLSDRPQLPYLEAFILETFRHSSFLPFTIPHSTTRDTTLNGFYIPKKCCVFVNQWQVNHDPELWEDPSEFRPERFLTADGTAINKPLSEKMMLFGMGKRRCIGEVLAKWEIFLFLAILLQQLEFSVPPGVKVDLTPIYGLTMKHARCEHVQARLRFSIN

[9] = Volume of distribution at steady state in portal vein-cannulated rat; assay type: ADME, organism-based; conditions: in vivo, read-out: Vdss
[10] = Fraction unbound in portal vein-cannulated rat brain; assay type: ADME, tissue-based
Cytochrome P450 2D6 = Cytochrome P450 2D6 (Homo sapiens, UniProt P10635); test: Inhibition of human CYP2D6 expressed in bactosome; assay type: ADME
Sequence of Cytochrome P450 2D6 (P10635 whole entry): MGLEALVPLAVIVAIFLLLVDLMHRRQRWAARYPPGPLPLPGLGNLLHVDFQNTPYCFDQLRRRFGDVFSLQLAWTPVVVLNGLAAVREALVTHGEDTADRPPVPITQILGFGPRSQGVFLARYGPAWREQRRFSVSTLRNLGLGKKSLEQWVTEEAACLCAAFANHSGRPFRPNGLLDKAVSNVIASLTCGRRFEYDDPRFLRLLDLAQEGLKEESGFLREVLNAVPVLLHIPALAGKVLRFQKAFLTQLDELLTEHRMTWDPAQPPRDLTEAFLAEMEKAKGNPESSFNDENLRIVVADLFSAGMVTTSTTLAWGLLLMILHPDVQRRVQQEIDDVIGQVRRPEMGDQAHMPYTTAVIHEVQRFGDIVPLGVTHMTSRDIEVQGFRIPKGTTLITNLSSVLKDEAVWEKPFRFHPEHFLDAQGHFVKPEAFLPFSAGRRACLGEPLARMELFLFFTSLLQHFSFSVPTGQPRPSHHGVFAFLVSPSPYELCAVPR

Cytochrome P450 3A4 [11] = target: T2, Cytochrome P450 3A4; test: Inhibition of human CYP3A4 expressed in bactosome using 7BQ as substrate; assay type: ADME
[12] = Blood clearance in portal vein-cannulated rat; assay type: ADME, organism-based; conditions: whole blood
Cytochrome P450 2C19 = Cytochrome P450 2C19 (Homo sapiens, UniProt P33261); test: Inhibition of human CYP2C19 expressed in bactosome; assay type: ADME
Sequence of Cytochrome P450 2C19 (P33261 whole entry): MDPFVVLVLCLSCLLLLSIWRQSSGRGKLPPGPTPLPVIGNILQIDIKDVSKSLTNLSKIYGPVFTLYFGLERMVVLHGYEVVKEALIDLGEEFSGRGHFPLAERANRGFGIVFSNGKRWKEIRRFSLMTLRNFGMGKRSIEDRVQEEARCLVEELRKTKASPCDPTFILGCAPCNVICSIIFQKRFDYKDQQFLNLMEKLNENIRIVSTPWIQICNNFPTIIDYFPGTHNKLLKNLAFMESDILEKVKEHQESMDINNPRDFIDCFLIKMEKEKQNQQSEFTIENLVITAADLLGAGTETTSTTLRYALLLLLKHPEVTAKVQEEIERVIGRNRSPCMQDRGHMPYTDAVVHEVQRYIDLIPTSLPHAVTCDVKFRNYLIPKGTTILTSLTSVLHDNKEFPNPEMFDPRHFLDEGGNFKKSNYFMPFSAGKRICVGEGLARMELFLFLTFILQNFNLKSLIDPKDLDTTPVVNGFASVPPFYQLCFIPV

[13] = Bioavailability in portal vein-cannulated rat; assay type: ADME, organism-based; conditions: in vivo
[14] = Intrinsic clearance in rat liver microsomes assessed per mg of protein; assay type: ADME; conditions: read-out: CLH

Sequence of D(3) dopamine receptor (P19020 whole entry): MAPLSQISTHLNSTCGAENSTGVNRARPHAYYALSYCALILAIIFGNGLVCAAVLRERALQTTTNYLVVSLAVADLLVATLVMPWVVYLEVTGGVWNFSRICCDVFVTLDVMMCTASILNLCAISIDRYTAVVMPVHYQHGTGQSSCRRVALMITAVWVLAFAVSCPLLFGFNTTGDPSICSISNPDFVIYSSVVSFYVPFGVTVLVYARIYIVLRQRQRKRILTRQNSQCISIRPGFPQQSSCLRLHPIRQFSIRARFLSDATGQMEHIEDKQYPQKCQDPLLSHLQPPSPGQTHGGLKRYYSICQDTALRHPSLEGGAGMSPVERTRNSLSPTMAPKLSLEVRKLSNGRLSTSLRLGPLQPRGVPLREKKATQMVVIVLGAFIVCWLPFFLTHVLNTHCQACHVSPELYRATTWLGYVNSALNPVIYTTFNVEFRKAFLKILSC

## Cc1ncoc1-c1nnc(SCCCN2CCOC(c3ccc(F)cc3)C2)n1C (stereo in doubt; 7)
D(3) dopamine receptor
  Ki: 0.251 µM
[1]
  half-life: 48 min
Cytochrome P450 2C9
  IC50: > 30 µM
[2]
  Ki: 3.16 µM
[3]
  microsomal CLint: 21.7 µL/min/mg
[4]
  hepatic extraction ratio: 0.1
[5]
  Ki: 3.16 µM
[6]
  fraction unbound: 0.17
Cytochrome P450 3A4 [7]
  IC50: > 30 µM
[8]
  Fa: 100%
Cytochrome P450 1A2
  IC50: > 30 µM
[9]
  Vd: 2.61 L/kg
[10]
  fraction unbound: > 0.5
Cytochrome P450 2D6
  IC50: > 30 µM
Cytochrome P450 3A4 [11]
  IC50: > 30 µM
[12]
  clearance: 40 mL/min/kg
Cytochrome P450 2C19
  IC50: > 30 µM
[13]
  bioavailability: 100%
[14]
  microsomal CLint: < 9 µL/min/mg
